From the NIST ThermoML archive (doi:10.1016/j.jct.2012.09.016)

Experiments:
[1] = Liquid, Vibrating tube method
[2] = molar heat capacity at constant pressure; conditions: Liquid, Small sample (50 mg) DSC

CCCCCCN [1-hexanamine]
Conditions	mass density, [1] [kg/m3]	molar heat capacity at constant pressure, [2] [J/K/mol]
293.15 K, 100 kPa	765	–
293.15 K, 10000 kPa	771.2	–
293.15 K, 20000 kPa	777.4	–
293.15 K, 30000 kPa	783.2	–
293.15 K, 40000 kPa	788.6	–
293.15 K, 50000 kPa	793.7	–
293.15 K, 60000 kPa	798.6	–
293.15 K, 70000 kPa	803.1	–
293.15 K, 80000 kPa	807.5	–
293.15 K, 90000 kPa	811.8	–
293.15 K, 100000 kPa	815.8	–
293.15 K, 110000 kPa	819.6	–
293.15 K, 120000 kPa	823.3	–
293.15 K, 130000 kPa	826.9	–
293.15 K, 140000 kPa	830.3	–
313.15 K, 100 kPa	–	253.5
313.15 K, 20000 kPa	–	251
313.15 K, 40000 kPa	–	250.1
313.15 K, 60000 kPa	–	248.9
323.15 K, 100 kPa	–	253.7
323.15 K, 20000 kPa	–	251.5
323.15 K, 40000 kPa	–	250.5
323.15 K, 60000 kPa	–	249.3
333.15 K, 100 kPa	–	254.4
333.15 K, 20000 kPa	–	252.4
333.15 K, 40000 kPa	–	251.2
333.15 K, 60000 kPa	–	250.1
343.15 K, 100 kPa	–	255.7
343.15 K, 20000 kPa	–	253.6
343.15 K, 40000 kPa	–	252.3
343.15 K, 60000 kPa	–	251.3
353.15 K, 100 kPa	712.4	257.5
353.15 K, 10000 kPa	722.4	–
353.15 K, 20000 kPa	731.1	255.2
353.15 K, 30000 kPa	739.1	–
353.15 K, 40000 kPa	746.2	253.8
353.15 K, 50000 kPa	752.8	–
353.15 K, 60000 kPa	758.9	252.8
353.15 K, 70000 kPa	764.7	–
353.15 K, 80000 kPa	770.1	–
353.15 K, 90000 kPa	775.2	–
353.15 K, 100000 kPa	780.1	–
353.15 K, 110000 kPa	784.7	–
353.15 K, 120000 kPa	789.2	–
353.15 K, 130000 kPa	793.4	–
353.15 K, 140000 kPa	797.5	–
363.15 K, 100 kPa	703.9	259.8
363.15 K, 10000 kPa	714.4	–
363.15 K, 20000 kPa	723.6	257.2
363.15 K, 30000 kPa	731.9	–
363.15 K, 40000 kPa	739.3	255.6
363.15 K, 50000 kPa	746.2	–
363.15 K, 60000 kPa	752.6	254.7
363.15 K, 70000 kPa	758.5	–
363.15 K, 80000 kPa	764.1	–
363.15 K, 90000 kPa	769.4	–
363.15 K, 100000 kPa	774.4	–
363.15 K, 110000 kPa	779.1	–
363.15 K, 120000 kPa	783.6	–
363.15 K, 130000 kPa	787.9	–
363.15 K, 140000 kPa	792.1	–
373.15 K, 100 kPa	694.8	262.6
373.15 K, 10000 kPa	706	–
373.15 K, 20000 kPa	716	259.6
373.15 K, 30000 kPa	724.5	–
373.15 K, 40000 kPa	732.4	257.8
373.15 K, 50000 kPa	739.5	–
373.15 K, 60000 kPa	746.1	256.9
373.15 K, 70000 kPa	752.2	–
373.15 K, 80000 kPa	758.1	–
373.15 K, 90000 kPa	763.5	–
373.15 K, 100000 kPa	768.7	–
373.15 K, 110000 kPa	773.5	–
373.15 K, 120000 kPa	778.2	–
373.15 K, 130000 kPa	782.6	–
373.15 K, 140000 kPa	786.9	–
383.15 K, 100 kPa	686.1	–
383.15 K, 10000 kPa	698.2	–
383.15 K, 20000 kPa	708.6	262.3
383.15 K, 30000 kPa	717.6	–
383.15 K, 40000 kPa	725.8	260.3
383.15 K, 50000 kPa	733.3	–
383.15 K, 60000 kPa	740.2	259.5
383.15 K, 70000 kPa	746.5	–
383.15 K, 80000 kPa	752.5	–
383.15 K, 90000 kPa	758.1	–
383.15 K, 100000 kPa	763.4	–
383.15 K, 110000 kPa	768.3	–
383.15 K, 120000 kPa	773.2	–
383.15 K, 130000 kPa	777.7	–
383.15 K, 140000 kPa	782	–
393.15 K, 100 kPa	676.2	–
393.15 K, 10000 kPa	689.2	–
393.15 K, 20000 kPa	700.3	265.3
393.15 K, 30000 kPa	709.8	–
393.15 K, 40000 kPa	718.4	263.1
393.15 K, 50000 kPa	726.6	–
393.15 K, 60000 kPa	733.7	262.4
393.15 K, 70000 kPa	740.3	–
393.15 K, 80000 kPa	746.5	–
393.15 K, 90000 kPa	752.2	–
393.15 K, 100000 kPa	757.7	–
393.15 K, 110000 kPa	762.9	–
393.15 K, 120000 kPa	767.8	–
393.15 K, 130000 kPa	772.5	–
393.15 K, 140000 kPa	776.9	–
403.15 K, 100 kPa	666.9	–
403.15 K, 10000 kPa	680.9	–
403.15 K, 20000 kPa	692.5	268.8
403.15 K, 30000 kPa	702.8	–
403.15 K, 40000 kPa	711.7	266.4
403.15 K, 50000 kPa	719.9	–
403.15 K, 60000 kPa	727.2	265.7
403.15 K, 70000 kPa	734.1	–
403.15 K, 80000 kPa	740.4	–
403.15 K, 90000 kPa	746.5	–
403.15 K, 100000 kPa	752.1	–
403.15 K, 110000 kPa	757.4	–
403.15 K, 120000 kPa	762.5	–
403.15 K, 130000 kPa	767.2	–
403.15 K, 140000 kPa	771.8	–
